Experiment: Fluorescence Based Assay: The details of the KEAP1 KELCH ThermoFluor® Assay Construct are as follows: Kelch domain of human KEAP 1 (321-624 aa) was used in the assay. The protein was expressed in E. coli with 6His tag that was cleaved prior to receipt for use.ThermoFluor® experiments were carried out using instruments owned by Janssen Research and Discovery, L.L.C. through its acquisition of 3-Dimensional Pharmaceuticals, Inc. 1,8-ANS (Invitrogen) was used as a fluorescent dye. Protein (KEAP Kelch) and compound solutions were dispensed into black 384-well polypropylene PCR microplates (Abgene) and overlayed with silicone oil (1 μL, Fluka, type DC 200) to prevent evaporation.Reference wells contained KEAP Kelch without compounds, and the assay conditions were as follows: 1.1 μM (0.037mg/mL) KEAP Kelch, 80 μM 1,8-ANS, 25 mM PIPES, pH 7.0, 100 mM NaCl, 0.002% Tween-20.

| SMILES | Kd |
| --- | --- |
| COCCCNc1ccc2c(n1)OC1(CC1)CN(Cc1cc([C@H](CC(=O)O)c3ccn4c(C(F)(F)F)nnc4c3C)ccc1C)S2(=O)=O | < 1 nM |
| Cc1ccc([C@H](c2ccn3c(C(F)(F)F)nnc3c2C)C(C)(C)C(=O)O)cc1CN1CC2(CC2)Oc2nc(N[C@@H](C)CN3CCCCC3)c(C)cc2S1(=O)=O | < 1 nM |
| Cc1ccc([C@H](c2ccn3c(C(F)(F)F)nnc3c2C)C(C)(C)C(=O)O)cc1CN1CC2(CCOCC2)Oc2nc(NCCN3CCOCC3)c(C)cc2S1(=O)=O | < 1 nM |
| Cc1ccc(C(CC(=O)O)c2ccc3c(nnn3C3CC3)c2C)cc1CN1C[C@@H]2CCCCN2c2ccccc2S1(=O)=O (stereo partly specified) | < 1 nM |
| CC[C@@H]1CN(Cc2cc(C(CC(=O)O)c3ccn4c(C(F)F)nnc4c3C)ccc2C)S(=O)(=O)c2cccnc2O1 (stereo partly specified) | < 1 nM |
| Cc1ccc([C@@H](CC(=O)O)c2ccn3c(C(F)F)nnc3c2C)cc1CN1C[C@@H]2CCCCN2c2ncc(C#N)cc2S1(=O)=O | < 1 nM |
| CCn1nnc2c(C)c([C@@H](CC(=O)O)c3ccc(C)c(CN4CC5(CC5)Oc5ncccc5S4(=O)=O)n3)ccc21 | < 1 nM |
| Cc1ccc([C@@H](CC(=O)O)c2ccn3c(C(F)(F)F)nnc3c2C)nc1CN1CC2(CC2)Oc2ncc(F)cc2S1(=O)=O | < 1 nM |
| Cc1ccc([C@@H](c2ccn3c(C(F)(F)F)nnc3c2C)C(C)(C)C(=O)O)cc1CN1CC2(CCOCC2)Oc2nc(OC(C)CN3CCCCC3)c(C)cc2S1(=O)=O (stereo partly specified) | < 1 nM |
| Cc1ccc([C@@H](CC(=O)O)c2ccn3c(C(F)(F)F)nnc3c2C)cc1CN1CC2(COC2)Oc2ncccc2S1(=O)=O | < 1 nM |
| Cc1cnc2c(c1)S(=O)(=O)N(Cc1cc(C(c3ccc4c(nnn4C4CC4)c3C)C(C)(C)C(=O)O)cnc1C)CC1(CCOCC1)O2 (stereo unspecified) | < 1 nM |
| Cc1ccc(C(c2ccc3c(nnn3CC3CC3)c2C)C(C)(C)C(=O)O)nc1CN1CC2(CCOCC2)Oc2nc(OCCN3CCOCC3)ccc2S1(=O)=O (stereo unspecified) | < 1 nM |
| Cc1ccc([C@H](c2ccn3c(C(F)(F)F)nnc3c2C)C(C)(C)C(=O)O)cc1CN1CC2(CCOCC2)Oc2nc(OCCN3CCC(F)(F)CC3)ccc2S1(=O)=O | < 1 nM |
| CCn1nnc2c(C)c([C@@H](CC(=O)O)c3ccc(C)c(CN4C[C@@H]5CCCCN5c5ncccc5S4(=O)=O)n3)ccc21 | < 1 nM |
| Cc1ccc([C@H](CC(=O)O)c2ccn3c(C(F)(F)F)nnc3c2C)cc1CN1C[C@@H]2CCCCN2c2ncccc2S1(=O)=O | < 1 nM |
| Cc1ccc([C@@H](c2ccn3c(C(F)(F)F)nnc3c2C)C(C)(C)C(=O)O)nc1CN1CC2(CC2)Oc2nc(OCCN3CCCC3)c(C)cc2S1(=O)=O | < 1 nM |
| Cc1ccc([C@@H](CC(=O)O)c2ccn3c(C(F)F)nnc3c2C)cc1CN1C[C@@H]2CCCN2c2ncc(C#N)cc2S1(=O)=O | < 1 nM |
| Cc1ccc([C@@H](c2ccn3c(C4CC4)nnc3c2C)C(C)(C)C(=O)O)cc1CN1CC2(CC2)Oc2nc(OCCN3CCCC3)c(C)cc2S1(=O)=O | < 1 nM |
| CCn1nnc2c(C)c(C(CC(=O)O)c3ccc(C)c(CN4C[C@H]5CCCN5c5ncccc5S4(=O)=O)n3)ccc21 (stereo partly specified) | < 1 nM |
| CCn1nnc2c(C)c(C(CC(=O)O)c3ccc(C)c(CN4C[C@H]5CCCCN5c5ncccc5S4(=O)=O)n3)ccc21 (stereo partly specified) | < 1 nM |
| Cc1ccc([C@@H](CC(=O)O)c2ccc3c(nnn3CC3CC3)c2C)cc1CN1C[C@H]2CCCCN2c2ncccc2S1(=O)=O | < 1 nM |
| Cc1ccc([C@H](CC(=O)O)c2cc(OC3CC3)c3c(c2)nnn3C)cc1CN1C[C@H]2CCCCN2c2ncccc2S1(=O)=O | < 1 nM |

| SMILES | Kd |
| --- | --- |
| Cc1cnc2c(c1)S(=O)(=O)N(Cc1nc([C@@H](c3ccn4c(C(F)F)nnc4c3C)C(C)(C)C(=O)O)ccc1C)CC1(COC1)O2 | < 1 nM |
| Cc1cnc2c(c1)S(=O)(=O)N(Cc1cc([C@@H](c3ccc4c(nnn4C4CC4)c3C)C(C)(C)C(=O)O)cnc1C)CC1(COC1)O2 | < 1 nM |
| CCn1nnc2c(C)c(C(CC(=O)O)c3ccc(C)c(CN4CC5(COC5)Oc5ncccc5S4(=O)=O)c3)ccc21 (stereo unspecified) | < 1 nM |
| Cc1ccc([C@@H](c2ccn3c(C(F)F)nnc3c2C)C(C)(C)C(=O)O)nc1CN1CC2(CCOCC2)Oc2nc(OCCN3CCCC3)c(C)cc2S1(=O)=O | < 1 nM |
| Cc1ccc([C@@H](CC(=O)O)c2ccn3c(C(F)(F)F)nnc3c2C)nc1CN1C[C@@H]2CCCCN2c2ncc(Cl)cc2S1(=O)=O | < 1 nM |
| CCn1nnc2c(C)c([C@@H](CC(=O)O)c3ccc(C)c(CN4C[C@H]5CCCN5c5ncccc5S4(=O)=O)n3)ccc21 | < 1 nM |
| CCn1nnc2c(C)c([C@H](c3cc(CN4CC5(CC5)Oc5ncc(C)cc5S4(=O)=O)c(C)cn3)C(C)(C)C(=O)O)ccc21 | < 1 nM |
| CCn1nnc2c(C)c(C(CC(=O)O)c3ccc(C)c(CN4C[C@@H]5CCCCN5c5ncccc5S4(=O)=O)n3)ccc21 (stereo partly specified) | < 1 nM |
| Cc1ccc(C(CC(=O)O)c2ccn3c(C(F)F)nnc3c2C)cc1CN1CC2(CC2)Oc2ncc(F)cc2S1(=O)=O (stereo unspecified) | < 1 nM |
| Cc1ccc([C@@H](CC(=O)O)c2ccn3c(C(F)F)nnc3c2C)cc1CN1C[C@H]2CCCN2c2ncccc2S1(=O)=O | < 1 nM |
| CC[C@@H]1CN(Cc2cc([C@@H](CC(=O)O)c3ccn4c(C(F)(F)F)nnc4c3C)ccc2C)S(=O)(=O)c2cccnc2O1 | < 1 nM |
| Cc1cnc2c(c1)S(=O)(=O)N(Cc1cc([C@@H](c3ccn4c(C(F)F)nnc4c3C)C(C)(C)C(=O)O)ccc1C)CC1(CCOCC1)O2 | < 1 nM |
| CCn1nnc2c(C)c([C@@H](CC(=O)O)c3ccc(C)c(CN4C[C@H]5CCCN5c5ccccc5S4(=O)=O)c3)ccc21 | < 1 nM |
| Cc1ccc([C@H](CC(=O)O)c2ccn3c(C(F)(F)F)nnc3c2C)cc1CN1CC2(CCOCC2)Oc2ncccc2S1(=O)=O | < 1 nM |
| Cc1ccc([C@H](CC(=O)O)c2ccn3c(C(F)F)nnc3c2C)cc1CN1C[C@]2(C)CCCN2c2ncccc2S1(=O)=O | < 1 nM |
| Cc1ccc(C(CC(=O)O)c2cc(OC(F)F)c3c(c2)nnn3C)cc1CN1C[C@H]2CCCN2c2ncccc2S1(=O)=O (stereo partly specified) | < 1 nM |
| Cc1ccc(C(CC(=O)O)c2ccc3c(nnn3CC3CC3)c2C)cc1CN1CC2(CC2)N(C)c2ncccc2S1(=O)=O (stereo unspecified) | < 1 nM |
| Cc1cnc2c(c1)S(=O)(=O)N(Cc1cc([C@@H](c3ccn4c(C(F)F)nnc4c3C)C(C)(C)C(=O)O)ncc1C)CC1(CC1)O2 | < 1 nM |
| Cc1ccc([C@@H](CC(=O)O)c2ccn3c(C(F)F)nnc3c2C)cc1CN1CC2(CCOCC2)Oc2ncc(F)cc2S1(=O)=O | < 1 nM |
| Cc1cnc2c(c1)S(=O)(=O)N(Cc1cc([C@H](c3ccn4c(C(F)(F)F)nnc4c3)C(C)(C)C(=O)O)ccc1C)CC1(CC1)O2 | < 1 nM |
| CC[C@@H]1CN(Cc2nc(C(CC(=O)O)c3ccc4c(nnn4C4CC4)c3C)ccc2C)S(=O)(=O)c2cccnc2O1 (stereo partly specified) | < 1 nM |
| Cc1ccc(C(c2cc(C)n3c(C(F)(F)F)nnc3c2C)C(C)C(=O)O)cc1CN1C[C@@H]2CCCCN2c2ncccc2S1(=O)=O (stereo partly specified) | < 1 nM |

| SMILES | Kd |
| --- | --- |
| Cc1ccc([C@@H](CC(=O)O)c2ccn3c(C(F)(F)F)nnc3c2C)nc1CN1C[C@@H]2CCCCN2c2ncc(F)cc2S1(=O)=O | < 1 nM |
| Cc1ccc([C@H](CC(=O)O)c2ccn3c(C(F)(F)F)nnc3c2C)nc1CN1C[C@H]2CCCCN2c2ncc(C#N)cc2S1(=O)=O | < 1 nM |
| Cc1ccc([C@H](CC(=O)O)c2ccn3c(C(F)(F)F)nnc3c2C)cc1CN1CC2(CC2)Oc2ncc(F)cc2S1(=O)=O | < 1 nM |
| CCn1nnc2c(C)c(C(c3cnc(C)c(CN4CC5(CCOCC5)Oc5ncc(C)cc5S4(=O)=O)c3)C(C)(C)C(=O)O)ccc21 (stereo unspecified) | < 1 nM |
| Cc1ccc(C(CC(=O)O)c2ccn3c(C(F)F)nnc3c2C)cc1CN1C[C@H]2CCCN2c2ncccc2S1(=O)=O (stereo partly specified) | < 1 nM |
| Cc1cc2cc([C@H](CC(=O)O)c3ccc(C)c(CN4C[C@H]5CCCN5c5ncccc5S4(=O)=O)c3)n(C)c2nn1 | < 1 nM |
| Cc1ccc([C@@H](CC(=O)O)c2ccc3c(nnn3CC3CC3)c2C(F)F)cc1CN1C[C@H]2CCCCN2c2ncccc2S1(=O)=O (single isomer, unassigned) | < 1 nM |
| Cc1ccc(C(CC(=O)O)c2ccn3c(C(F)(F)F)nnc3c2C)cc1CN1C[C@@H]2CCCCN2c2ncccc2S1(=O)=O (stereo partly specified) | < 1 nM |
| Cc1ccc([C@H](CC(=O)O)c2ccn3c(C(F)(F)F)nnc3c2C)cc1CN1CC2(CC2)Oc2nc(NCCN3CCCCC3)ccc2S1(=O)=O | < 1 nM |
| Cc1ccc(C(CC(=O)O)c2ccc3c(nnn3C3CC3)c2C)cc1CN1C[C@@H]2CCCCN2c2ncccc2S1(=O)=O (stereo partly specified) | < 1 nM |
| Cc1ccc([C@H](c2ccn3c(C(F)(F)F)nnc3c2C)C(C)(C)C(=O)O)cc1CN1CC(C)(C)Oc2ncccc2S1(=O)=O | < 1 nM |
| Cc1ccc([C@@H](CC(=O)O)c2ccn3c(C(F)F)nnc3c2C)cc1CN1C[C@H]2CCCN2c2ncc(C#N)cc2S1(=O)=O | < 1 nM |
| Cc1ccc([C@H](CC(=O)O)c2ccc3c(nnn3CC3CC3)c2C)cc1CN1C[C@H]2CCCCN2c2ncccc2S1(=O)=O | < 1 nM |
| Cc1ccc([C@@H](c2ccn3c(C(F)F)nnc3c2C)C(C)(C)C(=O)O)cc1CN1CC2(COC2)Oc2ncccc2S1(=O)=O | < 1 nM |
| Cc1ccc([C@@H](CC(=O)O)c2ccn3c(C(F)(F)F)nnc3c2C)cc1CN1C[C@@H]2CCC(F)(F)CN2c2ncccc2S1(=O)=O | < 1 nM |
| Cc1ccc([C@H](CC(=O)O)c2ccn3c(C(F)F)nnc3c2C)cc1CN1C[C@@H]2COCCN2c2ncccc2S1(=O)=O | < 1 nM |
| Cc1ccc([C@@H](c2ccc3c(nnn3CC3CC3)c2C)C(C)(C)C(=O)O)cc1CN1CC2(CCOCC2)Oc2ncccc2S1(=O)=O | < 1 nM |
| Cc1ccc([C@H](CC(=O)O)c2ccn3c(C)nnc3c2)cc1CN1C[C@H]2CCCN2c2ncccc2S1(=O)=O | < 1 nM |
| Cc1cnc2c(c1)S(=O)(=O)N(Cc1cc([C@@H](c3ccn4c(C(F)(F)F)nnc4c3C)C(C)(C)C(=O)O)ccc1C)CC1(CC1)O2 | < 1 nM |
| Cc1ccc([C@@H](c2ccn3c(C(F)(F)F)nnc3c2C)C(C)(C)C(=O)O)cc1CN1CC2(COC2)Oc2ncccc2S1(=O)=O | < 1 nM |
| Cc1ccc(C(CC(=O)O)c2ccc3c(nnn3CC3CC3)c2C)cc1CN1C[C@H]2CCCN2c2ncccc2S1(=O)=O (stereo partly specified) | < 1 nM |
| Cc1ccc([C@@H](CC(=O)O)c2ccn3c(C(F)(F)F)nnc3c2C)cc1CN1C[C@]2(C)CCCN2c2ncccc2S1(=O)=O | < 1 nM |

— ChEMBL document CHEMBL5729293, “Inhibitors of KEAP1-Nrf2 protein-protein interaction” (2022)
